B1: Noggin: Noggin protein, BMP inhibitor, provided by Miltenyi Biotec (ref 130-103-456) (protein, UniProt Q13253 28-232, looked up)
Noggin: QHYLHIRPAPSDNLPLVDLIEHPDPIFDPKEKDLNETLLRSLLGGHYDPGFMATSPPEDRPGGGGGAAGGAEDLAELDQLLRQRPSGAMPSEIKGLEFSEGLAQGKKQRLSKKLRRKLQMWLWSQTFCPVLYAWNDLGSRFWPRYVKVGSCFSKRSCSVPEGMVCKPSKSVHLTVLRWRCQRRGGQRCGWIPIQYPIISECKCSC

Experiments:
HS420 cells [1] = assay: Q-RT-PCR of regionalization markers (Otx-2, Lmxla, FoxA2, FoxG1, Msx-1) at day 8; format: cell-based, human; conditions: 0.2 uM, day 8, normalized to vehicle
Protocol: FIG. 6: HS420 cells were exposed for 8 days to dual SMAD inhibition or ALK inhibitors at the concentration of 0.2 μM. Regionalization markers were measured by Q-RT-PCR and normalized with control conditions (no compounds, vehicle alone).
(§1) Quantitative PCR was performed with Tecan Freedom Evo by using SYBR green fluorescence. cDNA was produced from RNA by using the prime script RT reagent kit (Takara). All primers were diluted at a concentration of 0.86 μM, and a master mix was used (Power SYBR Green Master Mix, Thermo Fisher Scientific).
A possible impact of ALK inhibitors on early neural specification was analysed after 8 days of differentiation and compared with dual SMAD inhibition. Several markers of early specification, focusing on forebrain/midbrain regionalization were measured by Q-RT-PCR at day 8 in neural induction medium. The following markers were tested: Otx-2 which is an anterior marker (forebrain and midbrain), Lmxla which is expressed in dorsal and ventral midbrain, FoxA2 which is a ventral marker in forebrain, midbrain and hindbrain. Was also tested the forebrain FoxG1 and Msx-1 which is more specific for early dopaminergic differentiation. Several experiments were performed (n=3) and values were normalized as the percentage of control (=no compound, vehicle lone). At this early stage (day 8), FoxA2 and Msx-1 were not detected by PCR in all conditions, showing the absence of acquisition of a ventral and dopaminergic identity. […] The Hindbrain marker HoxA2 was not detected at this stage (not shown), showing the absence of a hindbrain identity (not shown). […] DMH1 and DMH2 reduce the forebrain identity, a useful prerequisite for dopaminergic specification.

HS420 cells [2] = assay: Neuronal maturation after passage (nestin-, βIII-tubulin+ cells); format: cell-based, human; conditions: cells previously exposed to ALKi 0.2 μM, passaged at day 8, maturation
Protocol: FIG. 7: Neuronal maturation f HS420 cells (one month) exposed to ALKi versus dualSMAD inhibition.
(§2) For neural differentiation, HS420 cells at 50% of confluency were passaged in new laminin 521-coated tissue culture plates at the density of 10000 cells/cm^2 in Stemflex medium supplemented with ROCK inhibitor (Y27632, abcam) at 10 μM. After 24 h, cells were submitted to a medium change, the Stemflex being replaced by the following neural induction medium: Neurobasal (Thermofisher) supplemented with penicillin/streptomycin 100 U/ml (Invitrogen), B-27 supplement (Thermofisher), L-glutamine 2 mM (Thermofisher). Cells were passaged at day 8 and subsequent confluency (every weeks), by the use of Accutase (Thermofisher) and replated on polyornithine/Matrigel (Sigma)-coated tissue culture flasks at the density of 50 000/cm^2. • 3. Immunocytochemistry
At confluency (occurring in these conditions at day 8), cells were passaged at a very low density with Accutase and polyornithine/Matrigel-coated dished for neuronal maturation in appropriated medium. Neuronal cells (nestin− and βIII-tubulin+ cells with a neuritic morphology) were present in cells previously exposed to the four compounds, in contrast to control conditions from which cells reduced progressively their number, with only few neuronal cells in the plate (FIG. 7).

[3] = system: human embryonic stem cell line HS420; assay: Morphology of embryonic stem cells after one week of exposure in neural induction medium; format: cell-based; conditions: 0.2 μM; for morphological modifications of embryonic stem cells: vs control (DMSO)
Protocol: as §2
(§3) To study the effects of ML347, DMH1, DMH2, K02288 and A8301 on PSC, the human embryonic stem cell line HS420 was used. Cells were plated at a low density on laminin 521 (10000/cm^2) in their maintenance medium (Stemflex) and exposed 24 h later to ML347, DMH1 or DMH2 or K02288 or A8301, during one week, at the concentration of 0.2 μM in a minimal medium suited for early neural induction. Once confluent (after 8 days), cells were passaged and plated in the same medium, without neural inductors, at the density of 50000/cm^2 polyornithine/Matrigel—coated tissue culture flasks for maturation (FIG. 2).

[4] = system: human embryonic stem cell line HS420; assay: Immunofluorescent staining for nestin, Pax-6, Sox-1 at day 8; format: cell-based; conditions: 0.2 μM
Protocol: Cells on glass coverslips were fixed with 1 mL of 0.5% paraformaldehyde in PBS for 30 minutes at room temperature. Cells were then washed three times with 1 mL of PBS and incubated overnight with primary antibodies in PBS containing 0.1% Triton X-100 (Sigma), and 1% bovine serumalbumine (Sigma). Cells were washed three times with 1 mL of PBS before incubation for 1 h30 min with the secondary antibody in PBS containing 0.1% Triton X-100 and 1% bovine serumalbumine. Cells were washed three times with PBS before exposure to DAPI 300 nM in PBS (Sigma) for 15 minutes at room temperature. After three washes in PBS, cells were rinsed with water and mounted in glass slides using Fluorsave reagent (Merck Millipore). • 4. Quantitative RT PCR
as §3, with “2). […]” for “2).”

[5] = ATP-based cytotoxicity assay (Cmax allowing 100% viability); conditions: human, human embryonic pluripotent stem cell line HS420; HS420 cells; ATP quantification assay; read-out: Cmax (in vitro concentration allowing 100% of survival)
Source text: Multiple combinations between Noggin, LDN193189 and SB431542 are commonly used and generally called “dualSMAD inhibition”. It represents to date the most widely used way to induce early neural specification of PSC in vitro. Described herein is the report of a differentiation approach that excludes “dual Smad inhibition,” and instead achieves differentiation through the use of 5 chemicals inhibiting ALK to induce neural specification of pluripotent stem cells in vitro: ML347, DMH1, DMH2, K02288 and A8301 (Table 1). Table 1 indicates their name, PubChem ID and toxicity on the human embryonic Pluripotent Stem Cell line (ePSC) HS420, by using an ATP-based cytotoxicity assay. The Cmax was defined as the maximal concentration in vitro allowing 100% of viability of cells.

[6] = system: human embryonic stem cell line HS420; assay: Q-RT-PCR of neuroectodermal markers (Pax-6, Sox-1, nestin) at day 8; format: cell-based
Protocol: FIG. 5: Quantification of neuroectodermal markers following exposition of HS420 cells one week with ALKi or dualSMAD inhibition. Results are expressed as the percentage of control condition (DMSO) in three independent experiments. The bars in each bar graph represent, from left to right, data from DMH-1, DMH-2, K02288, A8301, and LDN+SB.
as §1
Q-RT-PCR experiments were performed to provide a quantitative description of neural-inducing effects of the 4 compounds (in three independent experiments).

Molecule | FoxG1 expression (forebrain specification) (HS420 cells [1]) | neural induction with generation of cells able to mature into neurons (HS420 cells [2]) | morphological modifications of embryonic stem cells [3] | Cmax [5] [nM] | other results
Cc1cccc(-c2nn(C(=S)Nc3ccccc3)cc2-c2ccnc3ccccc23)n1 [A8301, 3-(6-Methylpyridin-2-yl)-N-phenyl-4-(quinolin-4-yl)-1H-pyrazole-1-carbothioamide] | upregulation of FoxG1 | favoured neural induction with the generation of cells able to be further maturated into neurons | showed morphological modifications | 5180 ± 1780 | epithelial-like cells spreading between the colonies [3]: invaded as a monolayer the free tissue culture plate between the colonies; expression of nestin, Pax-6 and Sox-1 by immunofluorescent staining [4]: homogeneously expressed nestin, Pax-6 and Sox-1
CC(C)Oc1ccc(-c2cnc3c(-c4ccnc5ccccc45)cnn3c2)cc1 [DMH1, 4-[6-(4-Propan-2-yloxyphenyl)pyrazolo[1,5-a]pyrimidin-3-yl]quinoline] | reduced FoxG1 expression | favoured neural induction with the generation of cells able to be further maturated into neurons | showed morphological modifications | 970 ± 460 | –
c1ccc2c(-c3cnn4cc(-c5ccc(OCCN6CCOCC6)cc5)cnc34)ccnc2c1 [DMH2, 4-(2-(4-(3-(Quinolin-4-yl)pyrazolo[1,5-a]pyrimidin-6-yl)phenoxy)ethyl)morpholine] | reduced FoxG1 expression | favoured neural induction with the generation of cells able to be further maturated into neurons | showed morphological modifications | 580 ± 200 | –
COc1cc(-c2cc(-c3cccc(O)c3)cnc2N)cc(OC)c1OC [K02288, 3-[6-Amino-5-(3,4,5-Trimethoxyphenyl)pyridin-3-Yl]phenol] | – | favoured neural induction with the generation of cells able to be further maturated into neurons | showed morphological modifications | 530 ± 250 | epithelial-like cells spreading between the colonies [3]: invaded as a monolayer the free tissue culture plate between the colonies; expression of nestin, Pax-6 and Sox-1 by immunofluorescent staining [4]: homogeneously expressed nestin, Pax-6 and Sox-1
c1ccc2c(-c3cnn4cc(-c5ccc(N6CCNCC6)cc5)cnc34)ccnc2c1 [LDN193189] | – | – | – | – | expression of Pax-6, Sox-1 and nestin mRNAs compared to control ([6]; 0.5 μM): increased the expression of Pax-6, Sox-1 and nestin mRNAs
COc1ccc(-c2cnc3c(-c4cccc5ncccc45)cnn3c2)cc1 [ML347, 5-[6-(4 Methoxyphenyl)pyrazolo[1,5-a]pyrimidin-3-yl]quinoline] | – | – | – | 580 ± 200 | –
NC(=O)c1ccc(-c2nc(-c3ccc4c(c3)OCO4)c(-c3ccccn3)[nH]2)cc1 [SB431542, 4-(4-(Benzo[d][1,3]dioxol-5-yl)-5-(pyridin-2-yl)-1H-imidazol-2-yl)benzamide] | – | – | – | – | Sox-1 mRNA ([6]; alone at 10 μM): moderate increase; expression of the three markers (Pax-6, Sox-1, nestin mRNAs) ([6]; alone at 10 μM): did not increase the three markers
B1 | – | – | – | – | effect on neuroectodermal marker mRNAs ([6]; alone at 100 ng/ml): moderate effect
